This note sets out measurements from PMC9481570, “A small molecule antagonist of SMN disrupts the interaction between SMN and RNAP II” (Nature Communications, 2022).

Values joined by “and” are separate entries in the source; they are usually repeats but may differ in a detail not shown here. Equal entries are not always repeated.

Holding throughout (assay): Affinity-purification and mass spectrometry (AP-MS) chemical proteomics, all proteins;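 for Difference: 200 µM free competitor with 20 µM biotin probe overnight in lysate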
Assay type in all cases: binding

Experiment [1] addresses T1, proteins displaced from immobilized biotin-Cmpd 1 pulldowns (U2OS cell lysate) (Homo sapiens, UniProt P42357).
T1 construct: endogenous in cells; host or cells: U2OS
The following applies: GN=HAL (P42357). The procedure: (§1) The samples for AP-MS were prepared following pulldown procedure as previously described with minor modifications. Briefly, U2OS cells were lysed in RIPA buffer and the cell lysate was equally divided into two groups: (1) DMSO group (control group): the cell lysate was incubated with 20 μM biotin-labeled compound 1; (2) Cpmd 1 group (sample group): the cell lysate was incubated with 20 μM biotin-labeled compound 1 and 200 μM free compound 1. Each group contains three biological replicates. They were incubated overnight at 4 °C, then 30 μL streptavidin beads (Thermo Fisher, 20353) was added and incubated at 4 °C for 1 h. The beads were then washed with RIPA buffer for 3 times, 10 min/time.
(§2) Beads were rinsed twice with 50 mM TEAB, pH 7.55, before eluting proteins with 25 μL of 5% SDS, 50 mM TEAB, pH 7.55. The sample was then centrifuged at 17,000 × g for 10 min to remove any debris. Proteins were reduced with 20 mM TCEP (Thermo Fisher, 77720) and incubated at 65 °C for 30 min. The sample was cooled to room temperature and 1 μL of 0.5 M iodoacetamide acid was added and allowed to react for 20 min in dark. Phosphoric acid (12%, 2.75 μL) was added to the protein solution, followed by adding 165 μL of binding buffer (90% methanol, 100 mM TEAB, pH 7.1). The resulting solution was added to S-Trap spin column (protifi.com) and passed through the column using a bench top centrifuge (30 s spin at 4000 × g). The spin column was washed with 400 μL of binding buffer and centrifuged. This step was repeated two more times. Then trypsin was added to the protein mixture at a mass ratio of 1:25 in 50 mM TEAB, pH 8.0, and the sample was incubated at 37 °C for 4 h. Peptides were eluted with 80 μL of 50 mM TEAB, followed by 80 μL of 0.2% formic acid, and finally 80 μL of 50% acetonitrile, 0.2% formic acid. The combined peptide solution was then dried in a speed vac and resuspended in 2% acetonitrile, 0.1% formic acid, 97.9% water and placed in an autosampler vial.
(§3) Samples were analyzed by nanoLC-MS/MS (nanoRSLC, Thermo Fisher) using an Aurora series (Ion Opticks) reversed phase HPLC column (25 cm length × 75 µm inner diameter) and directly injected to an Orbitrap Eclipse (Thermo Fisher) using a 120 min gradient (mobile phase A = 0.1% formic acid, mobile phase B = 99.9% acetonitrile with 0.1% formic acid; hold 2% B for 5 min, 2–6% B in 0.1 min, 6–25% in 100 min, 25–50% in 15 min) at a flow rate of 350 nL/min. Eluted peptide ions were analyzed using a data-dependent acquisition (DDA) method with resolution settings of 120,000 and 15,000 (at m/z 200) for MS1 and MS2 scans, respectively. DDA-selected peptides were fragmented using stepped high energy collisional dissociation (27, 32, and 37%).
(§4) The data of AP-MS were analyzed as a previously described method with minor modifications. Briefly, the raw MS files were searched with MaxQuant software (version 1.6.1.1, www.maxquant.org)[56] against the UniProt human protein database (www.uniprot.org) concatenated with common contaminants and the decoy database. The mass tolerance for precursor ions was set to 20 ppm and 4.5 ppm for the first and main search, respectively. The cysteine carbamidomethylation was set as fixed modification and methionine oxidation and N-terminal acetylation as variable modifications. Enzyme specificity was set to trypsin and a maximum missed cleavage was set as 2. The 1% false discovery rate (FDR) at both peptide and protein levels was applied for the analysis. Relative protein quantification was based on the label-free quantification incorporated in the MaxQuant software. The iBAQ intensity of proteins was obtained for the control and experimental samples. The missing iBAQ intensity was replaced by a random number, which was calculated from a normal distribution with a width of 0.3 and a downshift of 1.8 defined by Perseus software (version 1.6.5.0). The P-value was calculated by performing two-sample Student’s t-test. […]

Experiment [2] has as its target T2, proteins displaced from immobilized biotin-Cmpd 1 pulldowns (U2OS cell lysate) (Homo sapiens, UniProt P25789).
T2 construct: endogenous in cells; host or cells: U2OS
The settings on record: GN=PSMA4 (P25789). How it is done:
as §1, §2, §3, §4

Experiment [3] has as its target T3, proteins displaced from immobilized biotin-Cmpd 1 pulldowns (U2OS cell lysate) (Homo sapiens, UniProt Q9BYD6).
T3 construct: endogenous in cells; host or cells: U2OS
The settings on record: GN=MRPL1 (Q9BYD6). How it is done:
as §1, §2, §3, §4

Experiment [4] concerns the target T4, proteins displaced from immobilized biotin-Cmpd 1 pulldowns (U2OS cell lysate) (Homo sapiens, UniProt Q92621).
T4 construct: endogenous in cells; host or cells: U2OS
The settings on record: GN=NUP205 (Q92621). How it is done: as §1, §2, §3, §4

In experiment [5] the target is T5, proteins displaced from immobilized biotin-Cmpd 1 pulldowns (U2OS cell lysate) (Homo sapiens, UniProt Q9NQC3).
T5 construct: endogenous in cells; host or cells: U2OS
T5 sequence (Q9NQC3 whole entry): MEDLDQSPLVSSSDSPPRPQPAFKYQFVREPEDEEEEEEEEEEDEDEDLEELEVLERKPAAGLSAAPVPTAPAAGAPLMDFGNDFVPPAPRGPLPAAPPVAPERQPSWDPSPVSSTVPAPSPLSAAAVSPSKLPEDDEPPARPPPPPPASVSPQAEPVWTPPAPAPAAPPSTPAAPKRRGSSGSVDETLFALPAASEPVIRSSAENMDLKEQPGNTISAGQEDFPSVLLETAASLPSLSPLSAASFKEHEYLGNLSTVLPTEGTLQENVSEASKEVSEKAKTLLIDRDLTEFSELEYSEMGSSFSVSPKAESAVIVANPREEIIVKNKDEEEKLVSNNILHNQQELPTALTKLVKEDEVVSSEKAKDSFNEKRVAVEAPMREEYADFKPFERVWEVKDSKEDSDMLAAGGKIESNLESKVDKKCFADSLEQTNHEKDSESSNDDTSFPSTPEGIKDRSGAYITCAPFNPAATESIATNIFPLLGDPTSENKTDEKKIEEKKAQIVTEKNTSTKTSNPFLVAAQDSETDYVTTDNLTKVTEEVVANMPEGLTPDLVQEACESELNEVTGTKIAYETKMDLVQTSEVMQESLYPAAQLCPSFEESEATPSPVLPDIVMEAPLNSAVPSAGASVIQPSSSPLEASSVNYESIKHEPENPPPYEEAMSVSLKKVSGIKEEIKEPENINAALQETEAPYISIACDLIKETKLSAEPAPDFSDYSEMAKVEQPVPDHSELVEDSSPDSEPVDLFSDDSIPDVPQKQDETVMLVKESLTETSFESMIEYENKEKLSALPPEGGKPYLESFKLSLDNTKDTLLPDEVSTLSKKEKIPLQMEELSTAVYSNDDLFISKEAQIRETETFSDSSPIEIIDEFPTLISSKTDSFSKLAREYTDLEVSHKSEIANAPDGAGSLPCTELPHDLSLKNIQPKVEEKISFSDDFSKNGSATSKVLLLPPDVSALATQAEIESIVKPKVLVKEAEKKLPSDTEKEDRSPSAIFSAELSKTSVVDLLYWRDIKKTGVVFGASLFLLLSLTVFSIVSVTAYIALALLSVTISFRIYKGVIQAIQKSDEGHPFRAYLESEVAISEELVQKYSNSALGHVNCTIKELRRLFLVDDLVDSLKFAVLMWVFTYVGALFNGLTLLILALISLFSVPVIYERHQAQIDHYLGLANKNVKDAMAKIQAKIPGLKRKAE
The following applies: GN=RTN4 (Q9NQC3). The procedure: as §1, §2, §3, §4

Experiment [6] addresses T6, proteins displaced from immobilized biotin-Cmpd 1 pulldowns (U2OS cell lysate) (Homo sapiens, UniProt Q6UWP8).
T6 construct: endogenous in cells; host or cells: U2OS
The following applies: GN=SBSN (Q6UWP8). The procedure: as §1, §2, §3, §4

The target in experiment [7] is T7, proteins displaced from immobilized biotin-Cmpd 1 pulldowns (U2OS cell lysate) (Homo sapiens, UniProt Q96DA0).
T7 construct: endogenous in cells; host or cells: U2OS
T7 sequence (Q96DA0 17-172): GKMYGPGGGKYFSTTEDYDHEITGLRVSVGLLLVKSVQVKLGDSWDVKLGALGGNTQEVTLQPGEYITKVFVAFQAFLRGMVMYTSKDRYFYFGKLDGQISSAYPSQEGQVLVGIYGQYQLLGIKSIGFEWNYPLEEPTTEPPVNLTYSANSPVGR
The settings on record: GN=ZG16B (Q96DA0). The procedure: as §1, §2, §3, §4

The target of experiment [8] is T8, proteins displaced from immobilized biotin-Cmpd 1 pulldowns (U2OS cell lysate) (Homo sapiens, UniProt Q9BVJ6).
T8 construct: endogenous in cells; host or cells: U2OS
T8 sequence (Q9BVJ6 whole entry): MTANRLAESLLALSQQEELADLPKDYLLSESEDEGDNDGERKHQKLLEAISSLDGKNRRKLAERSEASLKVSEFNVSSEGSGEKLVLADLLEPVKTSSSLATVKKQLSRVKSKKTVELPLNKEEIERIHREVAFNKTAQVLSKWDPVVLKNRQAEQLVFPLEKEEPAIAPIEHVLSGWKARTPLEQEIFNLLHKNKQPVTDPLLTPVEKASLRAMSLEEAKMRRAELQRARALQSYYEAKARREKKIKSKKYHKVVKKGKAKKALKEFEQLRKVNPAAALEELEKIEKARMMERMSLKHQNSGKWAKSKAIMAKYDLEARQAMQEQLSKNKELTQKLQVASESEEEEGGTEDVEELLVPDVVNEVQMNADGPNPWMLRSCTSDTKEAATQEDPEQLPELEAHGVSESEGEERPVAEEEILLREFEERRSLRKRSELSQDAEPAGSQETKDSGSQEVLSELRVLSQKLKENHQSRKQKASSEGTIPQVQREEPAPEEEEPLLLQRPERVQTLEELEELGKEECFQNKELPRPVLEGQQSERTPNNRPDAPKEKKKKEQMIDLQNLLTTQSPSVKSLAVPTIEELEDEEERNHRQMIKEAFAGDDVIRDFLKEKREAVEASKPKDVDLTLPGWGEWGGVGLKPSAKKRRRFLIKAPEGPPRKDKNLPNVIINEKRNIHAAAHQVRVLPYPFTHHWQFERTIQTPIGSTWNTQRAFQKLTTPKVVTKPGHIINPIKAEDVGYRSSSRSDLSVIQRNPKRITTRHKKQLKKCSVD
The settings on record: GN=UTP14A (Q9BVJ6). How it is done: as §1, §2, §3, §4

For experiment [9], the target named is T9, proteins displaced from immobilized biotin-Cmpd 1 pulldowns (U2OS cell lysate) (Homo sapiens, UniProt Q9BSJ8).
T9 construct: endogenous in cells; host or cells: U2OS
T9 sequence (Q9BSJ8 whole entry): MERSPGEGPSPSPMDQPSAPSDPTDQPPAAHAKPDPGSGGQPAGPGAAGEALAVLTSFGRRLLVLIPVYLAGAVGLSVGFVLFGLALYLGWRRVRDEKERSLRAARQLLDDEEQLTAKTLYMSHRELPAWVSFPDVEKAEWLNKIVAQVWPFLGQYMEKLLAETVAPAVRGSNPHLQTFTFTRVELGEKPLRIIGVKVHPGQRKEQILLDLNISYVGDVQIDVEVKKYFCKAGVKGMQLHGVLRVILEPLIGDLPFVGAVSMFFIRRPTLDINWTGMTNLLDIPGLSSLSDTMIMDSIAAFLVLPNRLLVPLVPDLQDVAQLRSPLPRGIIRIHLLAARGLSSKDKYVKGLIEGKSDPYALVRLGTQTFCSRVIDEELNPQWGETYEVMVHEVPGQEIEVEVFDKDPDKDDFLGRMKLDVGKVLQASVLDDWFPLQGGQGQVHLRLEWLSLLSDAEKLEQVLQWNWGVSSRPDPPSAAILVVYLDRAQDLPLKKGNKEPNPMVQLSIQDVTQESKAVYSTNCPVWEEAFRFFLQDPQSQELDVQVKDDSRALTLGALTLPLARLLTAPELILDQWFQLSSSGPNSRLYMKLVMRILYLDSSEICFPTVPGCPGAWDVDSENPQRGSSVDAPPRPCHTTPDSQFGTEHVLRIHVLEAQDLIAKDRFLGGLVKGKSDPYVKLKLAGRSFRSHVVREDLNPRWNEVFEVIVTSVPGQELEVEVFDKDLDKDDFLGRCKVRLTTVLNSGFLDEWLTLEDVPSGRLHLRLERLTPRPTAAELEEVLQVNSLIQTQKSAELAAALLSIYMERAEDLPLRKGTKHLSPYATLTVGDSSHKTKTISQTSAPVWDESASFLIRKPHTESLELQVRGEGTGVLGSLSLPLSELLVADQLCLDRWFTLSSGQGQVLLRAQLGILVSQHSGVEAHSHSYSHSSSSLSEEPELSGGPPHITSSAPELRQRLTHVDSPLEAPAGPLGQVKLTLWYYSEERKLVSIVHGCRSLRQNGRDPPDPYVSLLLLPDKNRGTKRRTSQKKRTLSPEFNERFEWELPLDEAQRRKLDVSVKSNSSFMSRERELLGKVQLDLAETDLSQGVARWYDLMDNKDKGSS
The settings on record: GN=ESYT1 (Q9BSJ8). How it is done:
as §1, §2, §3, §4

The target of experiment [10] is T10, proteins displaced from immobilized biotin-Cmpd 1 pulldowns (U2OS cell lysate) (Homo sapiens, UniProt Q9UI42).
T10 construct: endogenous in cells; host or cells: U2OS
T10 sequence (Q9UI42 114-421): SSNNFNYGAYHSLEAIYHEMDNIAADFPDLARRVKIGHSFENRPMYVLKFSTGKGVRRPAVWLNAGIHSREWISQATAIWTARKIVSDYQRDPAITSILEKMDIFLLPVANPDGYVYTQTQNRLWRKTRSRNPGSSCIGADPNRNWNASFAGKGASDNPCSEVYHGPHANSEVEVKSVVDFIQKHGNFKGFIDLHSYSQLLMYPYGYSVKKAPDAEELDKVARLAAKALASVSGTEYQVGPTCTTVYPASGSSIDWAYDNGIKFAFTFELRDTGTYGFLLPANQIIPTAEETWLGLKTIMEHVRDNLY
The settings on record: GN=CPA4 (Q9UI42). The procedure: as §1, §2, §3, §4

T1 sequence (P42357 whole entry): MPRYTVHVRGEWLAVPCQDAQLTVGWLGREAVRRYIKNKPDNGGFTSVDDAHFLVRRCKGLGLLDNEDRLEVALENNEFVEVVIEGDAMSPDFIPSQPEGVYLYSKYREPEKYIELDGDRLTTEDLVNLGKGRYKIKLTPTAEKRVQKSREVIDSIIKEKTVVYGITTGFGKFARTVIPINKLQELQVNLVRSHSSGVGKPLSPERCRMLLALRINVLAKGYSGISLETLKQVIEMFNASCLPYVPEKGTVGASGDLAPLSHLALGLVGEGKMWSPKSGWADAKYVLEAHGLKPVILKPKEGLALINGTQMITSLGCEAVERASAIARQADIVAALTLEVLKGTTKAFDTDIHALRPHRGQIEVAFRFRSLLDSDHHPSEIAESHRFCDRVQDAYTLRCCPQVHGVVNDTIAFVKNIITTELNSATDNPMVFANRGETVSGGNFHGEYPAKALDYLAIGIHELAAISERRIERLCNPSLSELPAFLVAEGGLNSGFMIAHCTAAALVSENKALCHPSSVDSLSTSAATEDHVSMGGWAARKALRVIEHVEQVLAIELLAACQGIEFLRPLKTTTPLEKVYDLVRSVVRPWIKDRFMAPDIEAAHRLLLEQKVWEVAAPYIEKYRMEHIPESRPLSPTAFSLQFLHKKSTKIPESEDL
T2 sequence (P25789 whole entry): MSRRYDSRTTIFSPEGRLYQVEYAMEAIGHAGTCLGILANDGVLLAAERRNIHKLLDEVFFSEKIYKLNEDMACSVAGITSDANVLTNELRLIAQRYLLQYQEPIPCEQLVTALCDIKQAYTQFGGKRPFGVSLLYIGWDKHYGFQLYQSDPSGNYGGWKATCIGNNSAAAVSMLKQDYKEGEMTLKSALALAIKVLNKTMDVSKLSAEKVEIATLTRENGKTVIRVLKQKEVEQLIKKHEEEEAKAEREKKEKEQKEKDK
T6 sequence (Q6UWP8 26-590): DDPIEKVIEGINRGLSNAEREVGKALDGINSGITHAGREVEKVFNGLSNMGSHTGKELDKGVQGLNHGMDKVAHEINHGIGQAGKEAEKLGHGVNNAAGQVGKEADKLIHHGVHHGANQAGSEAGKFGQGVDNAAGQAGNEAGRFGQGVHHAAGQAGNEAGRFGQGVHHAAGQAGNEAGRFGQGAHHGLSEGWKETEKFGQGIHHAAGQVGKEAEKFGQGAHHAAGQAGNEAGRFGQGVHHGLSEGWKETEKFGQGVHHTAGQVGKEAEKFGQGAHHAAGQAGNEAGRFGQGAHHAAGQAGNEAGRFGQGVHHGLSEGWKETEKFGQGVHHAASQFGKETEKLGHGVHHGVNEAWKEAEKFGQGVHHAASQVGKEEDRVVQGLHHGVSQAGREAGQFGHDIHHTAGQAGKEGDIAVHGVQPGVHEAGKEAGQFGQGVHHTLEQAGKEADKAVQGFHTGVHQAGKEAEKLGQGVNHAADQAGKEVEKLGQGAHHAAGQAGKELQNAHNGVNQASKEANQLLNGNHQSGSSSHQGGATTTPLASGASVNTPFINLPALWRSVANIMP

With `Cn1c2c(c(=N)c3c1CCC3)CCC2` [Compound 1, 4-methyl-2,3,4,5,6,7-hexahydrodicyclopenta[b,e]pyridin-8(1H)-imine], the Difference in [1] (Cmpd minus DMSO, -LOG(P-value) 1.13561) is -1.443; in experiment [2] (Cmpd minus DMSO, -LOG(P-value) 1.07686) it was -2.957; in experiment [3] (Cmpd minus DMSO, -LOG(P-value) 1.01314), 3.091; in experiment [4] (Cmpd minus DMSO, -LOG(P-value) 0.772292), 1.661; in [5] (Cmpd minus DMSO, -LOG(P-value) 0.85719) it was 2.734; in experiment [6] (Cmpd minus DMSO, -LOG(P-value) 0.819941) it was -1.912. The Difference is listed as -4.273 in [7] (Cmpd minus DMSO, -LOG(P-value) 1.41535); 1.578 in [8] (Cmpd minus DMSO, -LOG(P-value) 0.846922); 4.81 in experiment [9] (Cmpd minus DMSO, -LOG(P-value) 2.56654); -1.567 in [10] (Cmpd minus DMSO, -LOG(P-value) 1.07291). Besides, the “iBAQ Cmpd” value was 15.8179 and 16.0542 and 14.8398 in experiment [1] (replicates 1-3); 18.482 and 14.8891 and 15.1338 in experiment [2] (replicates 1-3); 18.4151 and 17.6221 and 18.5153 in experiment [3] (replicates 1-3); 17.4605 and 16.7059 and 15.0689 in experiment [4] (replicates 1-3); 19.1423 and 18.4673 and 18.3569 in [5] (replicates 1-3); 15.6356 and 17.305 and 16.0247 in experiment [6] (replicates 1-3). Moreover, the “iBAQ Cmpd” value in experiment [7] (replicates 1-3) was 15.4223 and 14.7351 and 17.7658; in [8] (replicates 1-3), 17.3529 and 17.1229 and 16.9849; in [9] (replicates 1-3) it was 19.5229 and 18.9864 and 18.8876; in [10] (replicates 1-3) it was 17.2042 and 16.9875 and 16.0895.
